Literature values, collected in US8383645B2 (Teva Pharmaceutical Industries, Ltd., priority 2006, dated 2013).

System: acute experimental autoimmune encephalomyelitis (aEAE) model
Conditions: U.S. Pat. No. 6,077,851

CCN(C(=O)c1c(O)c2c(Cl)cccc2n(C)c1=O)c1ccccc1 [Laquinimod, N-ethyl-N-phenyl-1,2-dihydro-4-hydroxy-5-chloro-1-methyl-2-oxoquinoline-3-carboxamide]
effectiveness in the aEAE model: effective
